Consider 1 substance from patent US11491139B2, “Inhibition of YAP for breaking tumor immune tolerance” (The Johns Hopkins University, priority 2015, dated 2022).

For series [1], the system named is B16-melanoma cells. The experiment in a line: B16-melanoma growth experiments in mice (tumor volume). It is filed as in vivo. Conditions: C57BL/6 mice challenged with B16-melanoma, Verteporfin 2 mg/mouse i.p. every two days, anti-PD-1 (G4) 100 μg/mouse i.p. twice a week, GVAX 1×10^6 irradiated cells s.c., FIG. 4. How it is done:
C57BL/6 mice were challenged with B16-melanoma cells and tumor progression was monitored as in FIG. 3. Cohorts of mice were injected treated with either VP, GVAX, anti-PD1 antibody, VP and anti-PD-1, or VP and GVAX beginning one day post-tumor injection. Control mice were left untreated (n=5/group). Shown are the mean tumor volumes for the groups +/−SD.
B16-melanoma cells were cultured in vitro in DMEM plus 10% heat inactivated Fetal Bovine Serum and were detached by trypsinization and washed prior to s.c. injection into the footpads of C57BL/6 mice (NCI). 1-5×10^4 B16 melanoma cells were injected each mouse in the footpad. In some cases, 10^5 B16 cells were injected. Once tumors were palpable (7-10 days), […] of 1×10^6 lethally irradiated (150Gy) B16 GM-vaccine cells were injected subcutaneously into the contralateral limb. For all these experiments, 5-10 mice were used per group. A hybridoma cell line expressing a blocking anti-PD-1 antibody (clone G4) was obtained from Dr. Charles Drake (JHH). […] Tumor volume was determined by digital caliper measurements throughout the experiment. The relative tumor volume was calculated by the formula: Length (mm)×Width (mm)×Height (mm)×0.5326×0.01. […] Cytokines and Foxp3 were measured by intracellular flow cytometry.

The conditions of series [2]: statement with reference [17]; may limit bioavailability; cited from earlier work.

Regarding Verteporfin, the “tumor growth / tumor size (tumor volume)” value is reported as “modest reduction in tumor size” in series [1] and “did not alter the course of tumor growth” in series [1] (listed as VP). The solubility entry in series [2] is “prone to solubility issues”.
